In US20080274959A1, “Actinomadura Chromoprotein, Apoprotein and Gene Cluster” (Wyeth, priority 2004, published 2008):

Experiments:
[1] = system: histone H1 in HeLa cells; assay: Digestion of histone H1 in HeLa cells, immunoblot; format: cell-based; conditions: overnight at 37° C., anti-histone H1 immunoblot
Experimental: To study whether the digestion of histones by the chromoprotein occurs in intact cells, HeLa cells were incubated with compounds overnight at 37° C. Cell lysates were analysed by SDS-PAGE and protein immunoblotting using anti-histone H1 antibodies (Santa Cruz Biotechnologies). […] This activity can contribute to antitumor effects by digesting histones in chromatin, making the DNA more accessible for cleavage. This appears to be a unique activity of the chromoprotein enediynes.

[2] = system: KB-V-1; assay: IC50 against P-GP expressing cells: KB-V-1; format: cell-based; conditions: KB-V-1, P-GP level +++; mean of two independent experiments
Source text: (§1) Human PGP (MDR1) is an ATP-dependent efflux pump which is capable of transporting many drugs across cell membranes. High level expression of this protein has been linked to multiple drug resistance of tumors. […] The protein component of the chromoprotein probably protects the chromophore from drug efflux mediated by MDR1, and may be responsible for the beneficial antitumor effects in colon cell lines which often express MDR1.

[3] = system: KB-8-5; assay: IC50 against P-GP expressing cells: KB-8-5; format: cell-based; conditions: KB-8-5, P-GP level +; mean of two independent experiments
Source text: as §1

[4] = system: KB; assay: IC50 against P-GP expressing cells: KB; format: cell-based; conditions: P-GP level −, mean of two independent experiments
Source text: as §1

[5] = target: T1, Human PGP (MDR1) (Homo sapiens, UniProt P08183); assay: Transport by P-GP (MDR-1); format: cell-based; conditions: judged from IC50 in KB, KB-8-5, KB-V-1 cells
T1 construct: endogenous in cells; parental KB is P-GP negative
T1 sequence (P08183 whole entry): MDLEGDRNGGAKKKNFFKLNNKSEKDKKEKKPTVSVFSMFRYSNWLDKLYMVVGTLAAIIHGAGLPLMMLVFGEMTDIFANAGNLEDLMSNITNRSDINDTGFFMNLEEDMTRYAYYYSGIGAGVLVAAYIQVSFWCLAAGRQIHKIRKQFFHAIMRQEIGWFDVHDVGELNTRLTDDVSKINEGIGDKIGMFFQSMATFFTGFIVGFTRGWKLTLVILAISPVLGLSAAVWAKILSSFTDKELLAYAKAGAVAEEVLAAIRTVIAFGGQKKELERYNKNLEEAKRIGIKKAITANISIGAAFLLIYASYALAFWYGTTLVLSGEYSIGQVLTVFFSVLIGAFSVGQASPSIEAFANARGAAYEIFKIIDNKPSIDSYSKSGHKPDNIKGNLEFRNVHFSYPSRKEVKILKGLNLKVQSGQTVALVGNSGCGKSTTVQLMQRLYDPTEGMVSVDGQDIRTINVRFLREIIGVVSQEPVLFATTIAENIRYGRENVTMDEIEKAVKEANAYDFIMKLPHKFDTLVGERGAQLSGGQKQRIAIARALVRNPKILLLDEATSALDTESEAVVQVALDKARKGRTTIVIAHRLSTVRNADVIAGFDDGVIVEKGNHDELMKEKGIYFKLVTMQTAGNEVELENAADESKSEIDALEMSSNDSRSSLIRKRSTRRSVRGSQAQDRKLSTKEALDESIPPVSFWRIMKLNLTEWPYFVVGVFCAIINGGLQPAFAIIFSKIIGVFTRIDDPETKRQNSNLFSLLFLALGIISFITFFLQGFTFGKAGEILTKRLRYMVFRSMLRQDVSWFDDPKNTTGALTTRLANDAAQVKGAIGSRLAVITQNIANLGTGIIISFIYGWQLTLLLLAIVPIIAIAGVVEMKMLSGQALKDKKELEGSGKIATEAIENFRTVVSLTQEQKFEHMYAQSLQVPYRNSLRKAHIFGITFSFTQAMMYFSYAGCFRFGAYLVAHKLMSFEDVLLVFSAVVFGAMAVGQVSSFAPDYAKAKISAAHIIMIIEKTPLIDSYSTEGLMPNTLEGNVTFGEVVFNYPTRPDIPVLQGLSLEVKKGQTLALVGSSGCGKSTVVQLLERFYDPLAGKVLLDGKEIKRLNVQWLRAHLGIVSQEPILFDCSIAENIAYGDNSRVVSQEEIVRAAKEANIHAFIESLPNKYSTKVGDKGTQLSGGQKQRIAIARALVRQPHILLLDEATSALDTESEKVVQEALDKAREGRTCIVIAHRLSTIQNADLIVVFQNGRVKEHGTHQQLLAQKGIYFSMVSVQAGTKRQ
Source text: as §1

[6] = system: Histone H1; assay: Digestion of histone H1, SDS-PAGE; format: biochemical; conditions: 50 mM Tris-Cl, pH 7.5 overnight at 37° C.
Experimental: Histone H1 was incubated with various concentrations of the chromoprotein in 50 mM Tris-Cl, pH 7.5 overnight at 37° C. (FIG. 20) Digestions of histone were assessed by SDS-polyacrylamide gel electrophoresis (SDS-PAGE), followed by staining of the gel with GelCode Blue (Pierce Biotechnology, Inc, Rockford, Ill.).

[7] = system: HCT116 cells; assay: Uptake of FITC-tagged protein, fluorescent microscopy / flow cytometry; format: cell-based, human
Source text: To determine the mechanism by which the chromoprotein enters cells and exerts its biological activity, the chromoprotein was labeled with a fluorescent tag (FITC) using EZ-Label fluorescent labeling kit (Pierce Biotechnology), according to the manufacturer's recommendation. […] Uptake of labeled material by HCT116 colon carcinoma cells was studied by fluorescent microscopy.
To determine whether an intact complex of chromophore and apoprotein is required for cellular and nuclear entry, the chromoprotein and apoprotein were labeled with FITC. Uptake of labeled material was studied by fluorescent microscopy.
To determine whether the entry of chromoprotein into cells is mediated by a saturable (e.g. cell surface receptor-dependent) process, HCT116 cells were incubated with FITC-labeled chromoprotein (FIG. 28, right panel) or apoprotein (FIG. 28, left panel) in the absence or presence of 10-fold excess of unlabeled reagent (unlabelled chromoprotein or apoprotein, respectively). Cells were analysed by fluorescent microscopy (left) or flow cytometry (right). […] Numbers in the histograms are mean channel numbers (FITC fluorescence).
Other means by which a protein complex can enter cells is pinocytosis, where caveolae in the surface of the cell pinch off to form pinosomes that are free within the cytoplasm of the cell. Since pinocytosis is an energy-dependent process that requires a functional tubulin cytoskeletal network, we examined the effect of sodium azide, an energy uncoupling agent and nocodazole, an agent which disrupts the tubulin cytoskeleton on cellular uptake. HCT116 cells were treated with FITC-labeled apoprotein in the absence or presence of sodium azide or nocodazole.

[8] = system: human tumor cell line panel; assay: In vitro anti-tumor activity, human tumor cell line panel; format: cell-based; conditions: apoprotein alone

bleomycin
histone H1 in cells after incubation [1]: No effect

calicheamicin [reference compound]
IC50 [2]: >1 µg/mL | IC50 [3]: 0.021 µg/mL | histone H1 in cells after incubation [1]: No effect | IC50 [4]: 0.003 µg/mL | MDR1 substrate [5]: good substrate for MDR1 | digestion of histone H1 [6]: did not cleave histone H1

COC(=O)Nc1nc2ccc(C(=O)c3cccs3)cc2[nH]1 [nocodazole, reference compound]
effect on uptake of FITC-labeled apoprotein ([7]; HCT116 cells): inhibited uptake of label

B1: apoprotein: protein component of the 21G792 chromoprotein without chromophore, SEQ ID NO:150, 12.92409 kDa by MALDI-MS (protein)
chain: DTVTVNYDCVGYPSDIAVTIDAPATAGVGDTATFEVSSVVTTGAPQDLPAGEVVTDMAIVVGGAQSGTITASGLTNEATPAGQPVNMVGGEAQITFTSAGSVTFTPSTTTQVDNGAQCTVVGEAPVGATTVVS
modifications: Actinomadura sp. 21G792
uptake, apoprotein compared with chromoprotein ([7]; FITC-labeled): similar | competition of uptake by 10-fold excess of unlabeled reagent ([7]; FITC-labeled, microscopy or flow cytometry): No competition of label | in vitro anti-tumor activity [8]: inactive | digestion of histone H1 [6]: no activity
